Measured values published in patent US20140350097A1, “TREATMENT OF HYPOTENSION ASSOCIATED WITH HEMODIALYSIS” (priority 2013, published 2014).

How the values were obtained:
[1] = system: beagle dogs; test: Four-week repeated dose intravenous toxicity study in beagle dogs with two-week recovery; type: in vivo, dog
Protocol: The objective of this study was to investigate the toxicity of NOX-100 when administered as a single intravenous injection once daily for four consecutive weeks to beagle dogs and to determine the reversibility of changes which were established as treatment related. In addition, the systemic exposure of the animals to the test substance was determined and evaluated for correlation with dose and time after starting treatment.
NOX-100 was administered intravenously as a daily single dose (20 mL/kg administered over approximately 2.5 minutes) of 100, 300, and 1000 mg/kg for four weeks in Beagle dogs (n=17 dogs per gender−unbalanced randomization across treated groups). Following the termination of treatment, an additional group of dogs in the Control and highest dose group were held for a period of two weeks in order to determine if the potential treatment related changes were reversible.

[2] = system: Crj:CD(SD)IGS rats (SPF); test: Four-week repeated dose intravenous toxicity study in rats with two-week recovery; type: in vivo, rat
Protocol: The objective of this study was to investigate the toxicity of NOX-100 when administered as a single intravenous injection once daily for four consecutive weeks to Sprague-Dawley (SPF) rats and to determine the reversibility of changes which were established as treatment related.
NOX-100 was administered intravenously as a daily single dose (“pulse”) (40 mL/kg) at doses of 100, 500, and 2000 mg/kg/day for four weeks in Crj:CD(SD)IGS rats (SPF). The Control group was treated with saline (n=60 rats per gender−balanced randomization across all groups.) Following termination of treatment, an additional group of rats in the Control and highest dose group were held for a period of two weeks in order determine if the potential treatment related changes were reversible.

[3] = Pharmacokinetics after bolus administration in hemodialysis subjects; type: in vivo, human
From the text: FIG. 1 depicts the results of plasma Cmax of NOX-100 after bolus administration in hemodialysis subjects as a function of dose. See Example 4.
FIG. 2 depicts the results of Area Under the Curve (AUC) of NOX-100 after bolus administration in hemodialysis subjects as a function of dose. See Example 4.
FIG. 3 depicts a histogram of plasma clearance of NOX-100 during dialysis after bolus administration in hemodialysis subject as a function of dose. Legend (x-axis, left to right): 0.33, 1, 3, 9, 25 and 50, mg/kg NOX-100. See Example 4.

[4] = system: beagle dogs; test: 1 or 4 day infusion toxicity in beagle dogs; type: in vivo, dog
[5] = Preliminary intravenous pharmacokinetics in rats; type: in vivo, rat; conditions: bolus injection 30 mg/kg i.v.
Protocol: (§1) The pharmacokinetics of intravenously administered NOX-100 was evaluated in mice, rats and dogs. Preliminary pharmacokinetic studies were conducted using a bolus injection of 30 mg/kg. Post injection, the drug was rapidly eliminated in all three species in a bi-exponential manner with a beta-t½ of approximately 6, 30 and 40 minutes in the mouse, rat and dog, respectively. […] The volume of distribution was around 20-30% of body weight and was similar in the three species. This is likely due to the hydrophilic nature of the drug and may reflect the distribution of NOX-100 primarily in the extracellular space.

[6] = system: Wistar rats; test: Endotoxin (LPS)-induced shock in Wistar rats; type: in vivo, rat
From the text: For example, in Wistar rats, shock induced by endotoxin such as LPS (lipopolysaccharide from Salmonella typhosa) is accompanied by severe hypotension, as well known in the art. […] In addition, the survival rate was increased by NOX-100.
Bacterial translocation across damaged intestinal epithelium into the circulation occurs in rats during endotoxin-induced shock, as evidenced by positive bacterial cultures grown from blood, mesenteric lymph nodes, spleen, or liver obtained after LPS challenge.
Moreover, in the rat shock model, liver injury occurs as a result of hypoperfusion and Kupffer cell activation with the release of cytokines by LPS.

[7] = system: Sprague-Dawley rats; test: 14-day infusion toxicity in Sprague-Dawley rats; type: in vivo
Protocol: The safety profile of NOX-100 was further evaluated in Sprague-Dawley rats (10/sex/group for the main study and 24/sex/group for the satellite groups for plasma concentration determination). Rats were administered with NOX-100 at 0, 100, 500 or 2000 mg/kg/day by infusion over a period of 8 hours for 14 days.
The dose of 100 mg/kg/day is considered the no-effect-level in rats.

[8] = Water solubility and isotonicity of Sodium MGD; type: physicochemical
Protocol: Sodium MGD is a white to slightly yellowish powder with 1.5 molecules of co-crystallized water, and is water soluble up to 35% w/v at approximately 25° C. A 4.5% (w/v) solution of the Sodium MGD in water without any additives affords a near isotonic solution.

[9] = Preliminary intravenous pharmacokinetics in mice; type: in vivo, mouse; conditions: bolus injection 30 mg/kg i.v.
Protocol: as §1

[10] = both, beagle, dog, in vivo, 4 weeks
[11] = females, 500 mg/kg/day, 14 days

With `CN(C[C@H](O)[C@@H](O)[C@H](O)[C@H](O)CO)C(=S)S` [NOX-100, N-methyl-D-glucamine dithiocarbamate] the “clinical observation: salivation” value [1, 10] was “salivation in the 1000 mg/kg group”, the “clinical observation: vomiting” value [1, 10] was “vomiting in the 100 mg/kg or higher dose groups” and the “body weight, food consumption, hematology, EKG, ophthalmology or organ weights” value ([1]; dog, in vivo) was “no changes”. The “gender related difference in systemic exposure” value ([1]; dog, in vivo) was “no gender related difference”, the “incidence of vomiting after dosing, Treated groups versus group not dosed” value ([1]; dog, in vivo) was “higher” and the “microscopic changes due to study substance” value ([1]; dog, in vivo) was “no microscopic changes”. The “reversibility of other changes” value ([1]; dog, in vivo) was “reversed completely or showed a tendency for reversal”, the “site of main toxicological findings” value ([1]; dog, in vivo) was “kidneys and urinary bladder” and the “systemic exposure (blood levels) versus dose” value ([1]; dog, in vivo) was “linear dose dependent increase”. The “urine specific gravity and urine volume” value ([1]; dog, in vivo) was “decrease in specific gravity and increase in urine volume”, the “histopathological examination: pelvic mucosa and urinary bladder” value ([1]; dog, in vivo, 1000 mg/kg) was “Inflammatory cell infiltration in the pelvic mucosa, and erosion of mucosa in the urinary bladder” and the “kidney histopathology of the moribund animal” value ([1]; dog, in vivo, 1000 mg/kg) was “moderate basophilia of the proximal renal tubules, pelvic mucosal epithelial hyperplasia, hyaline droplets in the proximal tubular epithelium and pelvic mucosal epithelium in the kidneys”. For the same compound, the “laboratory determinations of sodium” value ([1]; dog, in vivo, 1000 mg/kg) was “increased”, the “laboratory results on the day of necropsy, moribund animal” value ([1]; dog, in vivo, 1000 mg/kg) was “an increased white cell count with increased segmented neutrophils and an increase in gamma GT, ALP, urea nitrogen, creatinine, glucose, cholesterol, phospholipids, triglyceride, total protein, albumin, inorganic phosphorus and magnesium and a decrease in sodium and chloride” and the moribundity ([1]; dog, in vivo, 1000 mg/kg) was “became moribund six days after starting treatment”. The “necropsy organ weights of the moribund animal” value ([1]; dog, in vivo, 1000 mg/kg) was “increased absolute and relative weight of the liver, kidneys and adrenals with a decrease noted in the thymus weight”, the “other histopathological findings in the moribund animal” value ([1]; dog, in vivo, 1000 mg/kg) was “follicular atrophy of the mesenteric lymph node, acute atrophy of the thymus, glycogen accumulation in the liver, erosion of mucosa in the urinary bladder, and hypertrophy of cortical cells in the fascicular zone of the adrenals” and the “renal papilla of the moribund animal” value ([1]; dog, in vivo, 1000 mg/kg) was “for the most part necrotic”. The “no adverse effect level” value ([1]; dogs, pulse IV injection daily, four weeks) was “less than 100 mg/kg”, the “clinical signs in the moribund animal” value ([1]; male, beagle, dog, in vivo, 1000 mg/kg) was “vomiting occurred on Days 1 to 6, no stools were passed on Days 4 to 6, decreased locomotor activity was noted on Days 5 to 6 and hypothermia and lateral position was noted on Day 6” and the “food consumption or body weight gain versus Control” value ([2]; rat, in vivo) was “no significant differences”. The ophthalmological examinations ([2]; rat, in vivo) was “No changes”, the “reversibility after a two week period of bladder mucosal hyperplasia, proximal tubule basophilia and renal papillary edema” value ([2]; rat, in vivo) was “could not be confirmed” and the “reversibility of urinary bladder change” value ([2]; rat, in vivo) was “no clear-cut reversibility”. For the same compound, the “blood sodium, chloride and albumin” value ([2]; rat, in vivo, 2000 mg/kg) was “increased”, the cholesterol level ([2]; rat, in vivo, 2000 mg/kg) was “increased” and the hemoglobin ([2]; rat, in vivo, 2000 mg/kg) was “decrease”. For the same compound, the “no adverse effect level” value ([2]; rats, daily single i.v. dose, four weeks) was 100 mg/kg, the “plasma clearance during dialysis versus dose” value ([3]; 0.33-50 mg/kg, FIG. 3) was “decreased slightly with higher doses but the difference was not statistically significant” and the “plasma Cmax versus dose” value ([3]; bolus administration, hemodialysis subjects, FIG. 1) was “proportional to the dose”. The “Area Under the Curve (AUC) versus dose” value ([3]; bolus administration, hemodialysis subjects, FIG. 2) was “proportional to the dose”, the clearance ([3]; human, plasma, intravenous, averaged clearance from the 1, 9, and 50 mg/kg cohorts, read-out: plasma clearance during dialysis) was roughly 3.3 mL/min/kg and the pathological findings ([4]; 2000 mg/kg/day) was “thickening of the duodenal wall and tubular dilatation of the kidney with basophilia in the cortex and vacuolation in the areas of cortical tubules”. For the same compound, the “body weight and food consumption” value ([4]; 500-2000 mg/kg/day, 8-hour infusion, 1 or 4 days) was “decreased”, the “plasma concentrations on Day 4 compared to Day 1” value ([4]; 2 hours from the start of infusion, males and females) was “apparent increases” and the “doses at which signs of adverse effects were first observed” value ([4]; dogs) was 500 to 2000 mg/kg/day. The half-life ([5]; in vivo, iv, rat, read-out: beta-t½) was roughly 30 min, the clearance ([5]; rat, in vivo, iv, rats, read-out: clearance rate) was 15 ± 1 mL/min/kg and the volume of distribution ([5]; rats) was 20-30 % of body weight. The survival rate ([6]; Wistar rats, LPS shock) was “increased”, the LPS shock hypotension ([6]; Wistar rats, dose 0.3 mmol/kg) was “gradually reversed towards normal blood pressure levels” and the “plasma indices of liver injury (ornithine carbamoyltransferase, aspartate transaminase, fibrinogen)” value ([6]; rat shock model, 200 mg/kg/day) was “all significantly reduced”. For the same compound, the “reduction of bacterial translocation” value ([6]; rats, endotoxin-induced shock, prior infusion 200 mg/kg/day) was “about 70%”, the “microscopic findings in urinary bladder and duodenum” value ([7]; 2000 mg/kg/day, 14 days) was “hyperplasia of the urinary bladder and increased mitotic figures and dilatation of lymphatic vessels in the duodenum” and the “clinical chemistry, urinary output and kidney weight changes” value ([7]; 8-hour infusion, 14 days) was “Elevations in blood urea nitrogen and creatinine, increases in urinary output and kidney weights”. For the same compound, the “clinical signs of salivation” value ([7]; 8-hour infusion, 14 days) was “noted mostly at 2000 mg/kg/day and occasionally in the lower dose groups”, the “microscopic changes in the kidney” value ([7]; 8-hour infusion, 14 days) was “tubular epithelial basophilia, pyelitis at the papillary tip and hyperplasia of the pelvic transitional epithelium” and the treatment related deaths ([7]; 100, 500 or 2000 mg/kg/day, 8-hour infusion, 14 days) was “no treatment related deaths”. For the same compound, the dose concentration relationship ([7]; 100-2000 mg/kg/day) was “proportional dose concentration relationship”, the “mean plasma concentrations between 4 to 7.75 hours from the start of infusion” value ([7]; each day) was “remained constant” and the kidney weights [7, 11] was “increased”. For the same compound, the “microscopic changes (kidney)” value [7, 11] was “only seen in one rat”, the “mean plasma concentrations between Days 1, 7 and 14” value ([7]; rat, in vivo) was “similar” and the “mean steady state plasma concentrations, males versus females” value ([7]; rat, in vivo) was “no differences”. The no-effect-level ([7]; rats, 8-hour infusion, 14 days) was 100 mg/kg/day, the observable toxicity ([7]; rats, doses of up to 2000 mg/kg/day, 14 consecutive days) was “little observable toxicity” and the water solubility ([8]; approximately 25° C.) was “up to 35 % w/v”. For the same compound, the “concentration of solution in water that is near isotonic” value ([8]; in water without any additives) was 4.5 % (w/v), the half-life ([9]; in vivo, iv, mouse, read-out: beta-t½) was roughly 6 min and the volume of distribution ([9]; mice) was 20-30 % of body weight. It also gave a clearance ([9]; mouse, in vivo, iv, mice, read-out: clearance rate) of 26 mL/min/kg.
